Test results from patent US9850283B2, “Macrocyclic inhibitors of the PD-1/PD-L1 and CD80(B7-1)/PD-L1 protein/protein interactions” (BRISTOL-MYERS SQUIBB COMPANY, priority 2013, dated 2017).
Where two headings read alike, the source gives them in different places. Positions of bridges follow the written chain, without caps; N, C: chain ends. Non-standard residues stand in square brackets, D forms with d. Residues, ends and D or L forms follow the SMILES beside them. ξ: configuration not given here. Phe(3,4,5-F3) = N[C@@H](Cc1cc(F)c(F)c(F)c1)C(=O)O; Bip(2'-Me) = Cc1ccccc1-c1ccc(C[C@H](N)C(=O)O)cc1; Phe(3,4-(OMe)2) = COc1ccc(C[C@H](N)C(=O)O)cc1OC; Pro(4R-Bn) = O=C(O)[C@@H]1C[C@@H](Cc2ccccc2)CN1; Ala(2-furyl) = N[C@@H](Cc1ccco1)C(=O)O; Phe(3-Me) = Cc1cccc(C[C@H](N)C(=O)O)c1; d(cisHyp) = O=C(O)[C@H]1C[C@@H](O)CN1; Phe(2-Me) = Cc1ccccc1C[C@H](N)C(=O)O; Bta = N[C@@H](Cc1csc2ccccc12)C(=O)O; Hyp = O=C(O)[C@@H]1C[C@@H](O)CN1; NMeF = CN[C@@H](Cc1ccccc1)C(=O)O; NMeNle = CCCC[C@H](NC)C(=O)O; ξR = N=C(N)NCCCC(N)C(=O)O; NMeA = CN[C@@H](C)C(=O)O; Orn = NCCC[C@H](N)C(=O)O; Dab = NCC[C@H](N)C(=O)O; Dap = NC[C@H](N)C(=O)O; ξP = O=C(O)C1CCCN1; ξC = NC(CS)C(=O)O; ξS = NC(CO)C(=O)O; Sar = CNCC(=O)O

Columns and labels:
Human PD-L1/PD-1 = target: T1, Human PD-L1/PD-1 (Homo sapiens, UniProt Q9NZQ7); experiment: HTRF PD-1-Ig/PD-L1-His binding assay (human PD-L1)
T1 construct: made in house; host or cells: HEK293T
T1 sequence (Q9NZQ7 with tags, fused parts or gaps): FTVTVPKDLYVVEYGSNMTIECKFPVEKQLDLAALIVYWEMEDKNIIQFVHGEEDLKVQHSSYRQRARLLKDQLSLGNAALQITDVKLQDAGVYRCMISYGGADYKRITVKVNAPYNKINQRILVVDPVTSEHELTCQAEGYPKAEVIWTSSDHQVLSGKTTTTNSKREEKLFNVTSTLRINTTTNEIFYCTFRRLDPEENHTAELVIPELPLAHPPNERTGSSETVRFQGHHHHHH
In short: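 HTRF read-out: Eu cryptate anti-Ig mAb 1 nM final, APC anti-His mAb 20 nM final, added over the binding reaction. Proteins were PD-1-Ig and PD-L1-His ectodomain fusions. Buffer was dPBS, 0.1% BSA, 0.05% Tween-20.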

[1] = target: T2, LK35.2-hPD-L1 cells / PE-labeled PD-1-Ig (Homo sapiens, UniProt Q9NZQ7); experiment: LK35.2-hPD-L1 cell binding high-content screening assay; type: cell-based
T2 construct: expressed in transfected cells; host or cells: LK35.2 mouse B cell line
T2 sequence (Q9NZQ7 19-290): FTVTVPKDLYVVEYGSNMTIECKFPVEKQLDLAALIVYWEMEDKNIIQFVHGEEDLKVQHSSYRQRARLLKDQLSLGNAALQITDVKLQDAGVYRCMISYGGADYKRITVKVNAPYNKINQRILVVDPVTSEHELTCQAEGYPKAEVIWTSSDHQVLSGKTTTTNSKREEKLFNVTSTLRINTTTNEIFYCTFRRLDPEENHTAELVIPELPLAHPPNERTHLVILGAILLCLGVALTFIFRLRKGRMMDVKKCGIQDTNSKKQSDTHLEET
In short: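 Readout: high-content imaging of PE-PD-1-Ig bound to LK35.2-hPD-L1 cells. Cells plated overnight (RPMI/10% FCS); compound + 1 nM PE-PD-1-Ig, 1 h, 37 °C; 3× dPBS wash before imaging.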

[2] = cluster symbol, read-out: HTRF IC50 cluster
[3] = cluster symbol, cell line of CBA not given (LK35.2-hPD-L1 or 293T-hPD-L1), read-out: CBA IC50 cluster
[4] = cell binding assay, cell line not given, cluster symbol, read-out: CBA IC50 cluster

Compound | IC50 (Human PD-L1/PD-1; [2]) [nM] | IC50 [1, 3] [nM] | IC50 (Human PD-L1/PD-1; read-out: HTRF IC50 value) [nM] | IC50 ([1]; cell line of CBA not given (LK35.2-hPD-L1 or 293T-hPD-L1), read-out: CBA IC50 value) [nM] | IC50 [1, 4] [nM]
CCCC[C@H]1C(=O)N(C)[C@@H](CCCC)C(=O)N[C@@H](C)C(=O)N[C@H](C(=O)NCC(N)=O)CSCC(=O)N[C@@H](Cc2ccc(O)cc2)C(=O)N(C)[C@@H](C)C(=O)N[C@@H](CC(N)=O)C(=O)N2CCC[C@H]2C(=O)N[C@@H](CN)C(=O)N[C@@H](CCC(=O)O)C(=O)N2C[C@H](O)C[C@H]2C(=O)N[C@@H](Cc2c[nH]c3ccccc23)C(=O)N[C@@H](CO)C(=O)N[C@@H](Cc2c[nH]c3ccccc23)C(=O)N1C [Example 1171] ({CH2CO}-Y[NMeA]NP[Dap]E[Hyp]WSW[NMeNle][NMeNle]ACG-NH2; thioether N-14) | 0.385 to 6.74 | 0.158 to 4.71 | – | – | –
CCCC[C@H]1C(=O)N(C)CC(=O)N[C@@H](CC(=O)O)C(=O)N[C@@H]([C@@H](C)CC)C(=O)N(C)[C@@H](Cc2ccccc2)C(=O)N[C@@H](Cc2ccc(O)cc2)C(=O)N(C)CC(=O)N[C@@H](Cc2c[nH]c3ccccc23)C(=O)N[C@@H](Cc2ccc(O)cc2)C(=O)N[C@@H](CC(C)C)C(=O)N[C@H](C(=O)NCC(N)=O)CSCC(=O)N[C@@H](Cc2ccccc2)C(=O)N(C)[C@@H](Cc2ccccc2)C(=O)N1C [Example 3149] (HELM PEPTIDE1{[O=C(C[*:3])[*:2]].F.[meF].[CCCC[C@@H](C(=O)[*:2])N(C)[*:1]].[Sar].D.I.[meF].Y.[Sar].W.Y.L.C.G.[am]}$PEPTIDE1,PEPTIDE1,1:R3-14:R3$$$V2.0) | – | – | 30.3 | 8.86 | –
CCCC[C@H]1C(=O)N(C)[C@@H](CCCC)C(=O)N[C@@H](CCCNC(=N)N)C(=O)NC(C(=O)NCC(N)=O)CSCC(=O)N[C@@H](Cc2ccc(O)cc2)C(=O)N(C)[C@@H](C)C(=O)N[C@@H](CC(N)=O)C(=O)N2CCC[C@H]2C(=O)N[C@@H](CO)C(=O)N[C@@H](CC(C)C)C(=O)N2CCC[C@H]2C(=O)N[C@@H](Cc2c[nH]c3ccccc23)C(=O)N[C@@H](CO)C(=O)N[C@@H](Cc2csc3ccccc23)C(=O)N1C (stereo partly shown) [Example 9072] ({CH2CO}-Y[NMeA]NPSLPWS[Bta][NMeNle][NMeNle]R[ξC]G-NH2; thioether N-14) | 0.385 to 6.74 | – | – | – | 0.158 to 4.71
CCCC[C@H]1C(=O)N(C)CC(=O)N[C@@H](CC(=O)O)C(=O)N[C@@H](C(C)C)C(=O)N[C@@H](Cc2ccccc2C)C(=O)N[C@@H](Cc2ccc(O)cc2)C(=O)N(C)CC(=O)N[C@@H](Cc2c[nH]c3ccccc23)C(=O)N[C@@H](Cc2ccc(O)cc2)C(=O)N[C@@H](CC(C)C)C(=O)N[C@H](C(=O)NCC(N)=O)CSCC(=O)N[C@@H](Cc2ccccc2)C(=O)N(C)[C@@H](Cc2ccccc2)C(=O)N1C [Example 3133] ({CH2CO}-F[NMeF][NMeNle][Sar]DV[Phe(2-Me)]Y[Sar]WYLCG-NH2; thioether N-13) | > 30.5 | > 74.3 | – | – | –
CCCC[C@H]1C(=O)N(C)[C@@H](CCCC)C(=O)NC(CCCNC(=N)N)C(=O)NC(C(=O)NCC(N)=O)CSCC(=O)N[C@@H](Cc2ccccc2)C(=O)N(C)[C@@H](C)C(=O)N[C@@H](CC(N)=O)C(=O)N2CCCC2C(=O)N[C@@H](Cc2cnc[nH]2)C(=O)N[C@@H](CC(C)C)C(=O)N(C)CC(=O)N[C@@H](Cc2c[nH]c3ccccc23)C(=O)NC(CO)C(=O)N[C@@H](Cc2ccc(-c3ccccc3C)cc2)C(=O)N1C (stereo partly shown) [Example 1030] ({CH2CO}-F[NMeA]N[ξP]HL[Sar]W[ξS][Bip(2'-Me)][NMeNle][NMeNle][ξR][ξC]G-NH2; thioether N-14) | > 30.5 | > 74.3 | – | – | –
CCCC[C@H]1C(=O)N(C)[C@@H](CCCC)C(=O)N[C@@H](CN)C(=O)N[C@H](C(=O)NCC(N)=O)CSCC(=O)N[C@@H](Cc2ccc(O)cc2)C(=O)N2CCC[C@H]2C(=O)N[C@@H](CC(=O)O)C(=O)N2CCC[C@H]2C(=O)N[C@@H](CN)C(=O)N[C@@H](CC(=O)O)C(=O)N2C[C@H](O)C[C@H]2C(=O)N[C@@H](Cc2c[nH]c3ccccc23)C(=O)N[C@@H](CCN)C(=O)N[C@@H](Cc2csc3ccccc23)C(=O)N1C [Example 1222] ({CH2CO}-YPDP[Dap]D[Hyp]W[Dab][Bta][NMeNle][NMeNle][Dap]CG-NH2; thioether N-14) | 6.76 to 30.3 | > 74.3 | – | – | –
CCCC[C@H]1C(=O)N(C)[C@@H](CCCC)C(=O)N[C@@H](CCCNC(=N)N)C(=O)N[C@H](C(=O)NCC(N)=O)CSCC(=O)N[C@@H](Cc2ccc(OC)c(OC)c2)C(=O)N(C)[C@@H](C)C(=O)N[C@@H](CC(N)=O)C(=O)N2CCC[C@H]2C(=O)N[C@@H](Cc2cnc[nH]2)C(=O)N[C@@H](CC(C)C)C(=O)N(C)CC(=O)N[C@@H](Cc2c[nH]c3ccccc23)C(=O)N[C@@H](CO)C(=O)N[C@@H](Cc2c[nH]c3ccccc23)C(=O)N1C [Example 1105] ({CH2CO}-[Phe(3,4-(OMe)2)][NMeA]NPHL[Sar]WSW[NMeNle][NMeNle]RCG-NH2; thioether N-14) | 6.76 to 30.3 | 4.78 to 72.9 | – | – | –
CCCC[C@H]1C(=O)N2C[C@H](O)C[C@@H]2C(=O)N[C@@H](CC(=O)O)C(=O)N[C@@H](C(C)C)C(=O)N(C)[C@@H](Cc2ccccc2)C(=O)N[C@@H](Cc2ccc(O)cc2)C(=O)N2CCC[C@@H]2C(=O)N[C@@H](Cc2c[nH]c3ccccc23)C(=O)N[C@@H](Cc2ccc(O)cc2)C(=O)N[C@@H](CC(C)C)C(=O)N[C@H](C(=O)NCC(N)=O)CSCC(=O)N[C@@H](Cc2cc(F)c(F)c(F)c2)C(=O)N(C)[C@@H](Cc2ccccc2)C(=O)N1C [Example 3183] ({CH2CO}-[Phe(3,4,5-F3)][NMeF][NMeNle][d(cisHyp)]DV[NMeF]Y[dP]WYLCG-NH2; thioether N-13) | 0.385 to 6.74 | 0.158 to 4.71 | – | – | –
CCCC[C@H]1C(=O)N(C)[C@@H](CCCC)C(=O)N[C@@H](CCCNC(=N)N)C(=O)N[C@H](C(=O)NCC(N)=O)CSCC(=O)N[C@@H](Cc2ccco2)C(=O)N(C)[C@@H](C)C(=O)N[C@@H](CC(N)=O)C(=O)N2CCC[C@H]2C(=O)N[C@@H](Cc2cnc[nH]2)C(=O)N[C@@H](CC(C)C)C(=O)N(C)CC(=O)N[C@@H](Cc2c[nH]c3ccccc23)C(=O)N[C@@H](CO)C(=O)N[C@@H](Cc2c[nH]c3ccccc23)C(=O)N1C [Example 1099] ({CH2CO}-[Ala(2-furyl)][NMeA]NPHL[Sar]WSW[NMeNle][NMeNle]RCG-NH2; thioether N-14) | > 30.5 | > 74.3 | – | – | –
CCCC[C@H]1C(=O)N(C)CC(=O)N[C@@H](CC(=O)O)C(=O)N[C@@H](C(C)C)C(=O)N[C@@H](Cc2cccc(C)c2)C(=O)N[C@@H](Cc2ccc(O)cc2)C(=O)N(C)CC(=O)N[C@@H](Cc2c[nH]c3ccccc23)C(=O)N[C@@H](Cc2ccc(O)cc2)C(=O)N[C@@H](CC(C)C)C(=O)N[C@H](C(=O)NCC(N)=O)CSCC(=O)N[C@@H](Cc2ccccc2)C(=O)N(C)[C@@H](Cc2ccccc2)C(=O)N1C [Example 3134] ({CH2CO}-F[NMeF][NMeNle][Sar]DV[Phe(3-Me)]Y[Sar]WYLCG-NH2; thioether N-13) | > 30.5 | > 74.3 | – | – | –
CCCC[C@H]1C(=O)N(C)CC(=O)N[C@@H](CC(=O)O)C(=O)N[C@@H](C(C)C)C(=O)N(C)[C@@H](Cc2ccccc2)C(=O)N[C@@H](Cc2ccc(O)cc2)C(=O)N(C)CC(=O)N[C@@H](Cc2c[nH]c3ccccc23)C(=O)N[C@H](C(=O)NCC(N)=O)CSCC(=O)N[C@@H](Cc2ccccc2)C(=O)N(C)[C@@H](Cc2ccccc2)C(=O)N1C [Example 3055] (HELM PEPTIDE1{[O=C(C[*:3])[*:2]].F.[meF].[CCCC[C@@H](C(=O)[*:2])N(C)[*:1]].[Sar].D.V.[meF].Y.[Sar].W.C.G.[am]}$PEPTIDE1,PEPTIDE1,1:R3-12:R3$$$V2.0) | > 30.5 | > 74.3 | – | – | –
CCCC[C@H]1C(=O)N(C)[C@@H](CCCC)C(=O)N[C@@H](C)C(=O)N[C@H](C(=O)NCC(N)=O)CSCC(=O)N[C@@H](Cc2ccc(O)cc2)C(=O)N(C)[C@@H](C)C(=O)N[C@@H](CC(=O)O)C(=O)N2CCC[C@H]2C(=O)N[C@@H](Cc2cnc[nH]2)C(=O)N[C@@H](CCCN)C(=O)N2C[C@H](O)C[C@H]2C(=O)N[C@@H](Cc2c[nH]c3ccccc23)C(=O)N[C@@H](CO)C(=O)N[C@@H](Cc2c[nH]c3ccccc23)C(=O)N1C [Example 1140] ({CH2CO}-Y[NMeA]DPH[Orn][Hyp]WSW[NMeNle][NMeNle]ACG-NH2; thioether N-14) | 0.385 to 6.74 | 0.158 to 4.71 | – | – | –
CCCC[C@H]1C(=O)N(C)[C@@H](CCCC)C(=O)N[C@@H](C)C(=O)N[C@H](C(=O)NCC(N)=O)CSCC(=O)N[C@@H](Cc2ccc(O)cc2)C(=O)N(C)[C@@H](C)C(=O)N[C@@H](CC(=O)O)C(=O)N2CCC[C@H]2C(=O)N[C@@H](Cc2c[nH]cn2)C(=O)N[C@@H](CCC(=O)O)C(=O)N2C[C@H](Cc3ccccc3)C[C@H]2C(=O)N[C@@H](Cc2c[nH]c3ccccc23)C(=O)N[C@@H](CCN)C(=O)N[C@@H](Cc2c[nH]c3ccccc23)C(=O)N1C [Example 13008] ({CH2CO}-Y[NMeA]DPHE[Pro(4R-Bn)]W[Dab]W[NMeNle][NMeNle]ACG-NH2; thioether N-14) | 0.385 to 6.74 | – | – | – | 0.158 to 4.71
CCCC[C@H]1C(=O)N(C)[C@@H](CCCC)C(=O)N[C@@H](CN)C(=O)N[C@H](C(=O)NCC(N)=O)CSCC(=O)N[C@@H](Cc2ccc(O)cc2)C(=O)N(C)[C@@H](C)C(=O)N[C@@H](CC(N)=O)C(=O)N2CCC[C@H]2C(=O)N[C@@H](Cc2cnc[nH]2)C(=O)N[C@@H](CC(C)C)C(=O)N2C[C@H](O)C[C@H]2C(=O)N[C@@H](Cc2c[nH]c3ccccc23)C(=O)N[C@@H](CO)C(=O)N[C@@H](Cc2c[nH]c3ccccc23)C(=O)N1C [Example 1132] | 6.76 to 30.3 | 0.158 to 4.71 | – | – | –
